From article PMC5314759 (2016)

Legend:
[1] = system: poly[d(A-T)2] (DNA, polymer) AT; experiment: ethidium bromide fluorescence displacement; conditions: apparent; ethidium bromide displaced; Kapp = Kb × 12.6/C50; over 5 h
[2] = system: poly[d(A-T)2] (DNA, polymer) AT; experiment: UV thermal melting; conditions: compound concentration not given here; no significant stabilization
[3] = system: poly[d(G-C)2] (DNA, polymer) GC; experiment: UV thermal melting; conditions: compound concentration not given here; no significant stabilization
[4] = system: poly[d(G-C)2] (DNA, polymer) GC; experiment: ethidium bromide fluorescence displacement; conditions: apparent; ethidium bromide displaced; Kapp = Kb × 12.6/C50; over 5 h

SMILES | Kapp [1] | ΔTM [2] | ΔTM [3] | Kapp [4]
COC1=CC=C2[C@H]3Cc4ccc(OCc5c(C)c(COc6ccc7c8c6O[C@H]6C(OC)=CC=C9[C@@H](C7)N(C)CC[C@]986)c(C)c(COc6ccc7c8c6O[C@H]6C(OC)=CC=C9[C@@H](C7)N(C)CC[C@]986)c5C)c5c4[C@@]2(CCN3C)[C@H]1O5 | 3.63 × 10^6 M(bp)^-1 | −0.17 ± 0.25 °C | 0.36 ± 0.17 °C | 3.5 × 10^7 M(bp)^-1
CO[C@H]1C=C[C@H]2[C@H]3Cc4ccc(OCc5c(C)c(COc6ccc7c8c6O[C@H]6[C@@H](OC)C=C[C@H]9[C@@H](C7)N(C)CC[C@@]896)c(C)c(COc6ccc7c8c6O[C@H]6[C@@H](OC)C=C[C@H]9[C@@H](C7)N(C)CC[C@@]896)c5C)c5c4[C@@]2(CCN3C)[C@H]1O5 | 9.1 × 10^6 M(bp)^-1 | 0.73 ± 0.18 °C | 1.72 ± 0.61 °C | 1.15 × 10^7 M(bp)^-1
Cc1c(COc2ccc3c4c2O[C@H]2[C@@H](O)C=C[C@H]5[C@@H](C3)N(C)CC[C@@]452)c(C)c(COc2ccc3c4c2O[C@H]2[C@@H](O)C=C[C@H]5[C@@H](C3)N(C)CC[C@@]452)c(C)c1COc1ccc2c3c1O[C@H]1[C@@H](O)C=C[C@H]4[C@@H](C2)N(C)CC[C@@]341 | 3.03 × 10^5 M(bp)^-1 | 0.38 ± 0.71 °C | 2.63 ± 0.58 °C | 2.69 × 10^5 M(bp)^-1
